In patent US10246429B2, “Vinyl fluoride cyclopropyl fused thiazin-2-amine compounds as beta-secretase inhibitors and methods of use” (AMGEN INC., priority 2015, dated 2019) one finds IC50 data, which are given here for 19 molecules.

In assay [1] the target is T1, BACE1 (Homo sapiens (Human), UniProt P56817). Kind of assay: In vitro enzymatic BACE1 FRET assay. The note with it: read-out: IC50 IP (μM) BACE1 Enzyme. The format is biochemical.
Target sequence in this assay (P56817 46-501): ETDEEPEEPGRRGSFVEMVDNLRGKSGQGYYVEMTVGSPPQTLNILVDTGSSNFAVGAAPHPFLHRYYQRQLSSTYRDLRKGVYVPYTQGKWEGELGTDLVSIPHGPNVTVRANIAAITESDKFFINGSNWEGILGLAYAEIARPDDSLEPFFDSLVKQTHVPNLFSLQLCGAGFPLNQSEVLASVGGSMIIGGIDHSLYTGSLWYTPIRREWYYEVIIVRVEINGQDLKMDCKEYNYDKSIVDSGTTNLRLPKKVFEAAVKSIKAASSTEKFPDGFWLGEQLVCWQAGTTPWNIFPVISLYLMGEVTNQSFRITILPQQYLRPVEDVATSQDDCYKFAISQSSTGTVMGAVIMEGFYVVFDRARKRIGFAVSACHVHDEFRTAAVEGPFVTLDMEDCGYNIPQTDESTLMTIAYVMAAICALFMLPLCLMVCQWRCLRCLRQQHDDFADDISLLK
Description: (§1) In Vitro Enzymatic BACE1 and BACE2 FRET (Fluorescence Resonance Energy Transfer) Assays (Enzyme Assay Data in Table 1)
Another assay concerns the target Cathepsin D (CatD) (Homo sapiens (Human), UniProt P07339). The assay is described as follows: CatD assay. In kind it is biochemical. The note with it: read-out: IC50 IP (μM) CatD.
Assay [2] has as its target T1, BACE1. Kind of assay: BACE1 cell assay. In kind it is cell-based. The note with it: for IC50: read-out: IC50 IP (μM) BACE1 Cell.
Target sequence in this assay (P56817 46-501, species assumed): as the sequence (P56817 46-501) above
The next assay deals with BACE2 (Homo sapiens (Human), UniProt Q9Y5Z0). Kind of assay: In vitro enzymatic BACE2 FRET assay. The format is biochemical. The note with it: read-out: IC50 IP (μM) BACE2 Enzyme.

pIC50: −log10 of the molar value.

Sequence of BACE2 (Q9Y5Z0 63-518): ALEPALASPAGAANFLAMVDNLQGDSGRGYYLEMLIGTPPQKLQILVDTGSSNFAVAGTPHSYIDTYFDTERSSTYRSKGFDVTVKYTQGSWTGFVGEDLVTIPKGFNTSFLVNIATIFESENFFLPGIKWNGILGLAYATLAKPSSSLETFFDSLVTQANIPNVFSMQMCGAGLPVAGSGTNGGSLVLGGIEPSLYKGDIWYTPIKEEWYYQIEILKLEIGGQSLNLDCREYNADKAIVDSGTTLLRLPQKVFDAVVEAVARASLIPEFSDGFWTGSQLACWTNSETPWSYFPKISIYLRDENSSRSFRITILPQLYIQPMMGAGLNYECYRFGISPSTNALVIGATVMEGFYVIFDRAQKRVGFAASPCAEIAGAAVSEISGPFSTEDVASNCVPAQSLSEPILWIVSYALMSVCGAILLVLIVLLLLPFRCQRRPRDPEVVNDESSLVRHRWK
Sequence of Cathepsin D (CatD) (P07339 65-412, species assumed): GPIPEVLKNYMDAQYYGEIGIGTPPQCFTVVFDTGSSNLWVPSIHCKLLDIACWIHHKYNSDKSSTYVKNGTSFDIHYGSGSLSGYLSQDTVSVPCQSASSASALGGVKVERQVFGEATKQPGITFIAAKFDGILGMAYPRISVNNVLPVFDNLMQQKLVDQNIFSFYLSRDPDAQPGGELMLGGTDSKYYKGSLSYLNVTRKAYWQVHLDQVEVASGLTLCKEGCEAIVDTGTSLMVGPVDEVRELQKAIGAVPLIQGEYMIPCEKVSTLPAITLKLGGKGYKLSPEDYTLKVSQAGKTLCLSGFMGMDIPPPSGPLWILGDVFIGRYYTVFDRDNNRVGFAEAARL
Description for BACE2: as §1

Take `C[C@]1(c2cc(/C=C(\F)c3ccc(C#N)cn3)ccc2F)N=C(N)S[C@@]2(C(=O)N3CCCC3)C[C@H]21` [Example 107, 6-((Z)-2-(3-((1S,5S,6S)-3-amino-5-methyl-1-(pyrrolidine-1-carbonyl)-2-thia-4-azabicyclo[4.1.0]hept-3-en-5-yl)-4-fluorophenyl)-1-fluorovinyl)nicotinonitrile]: the IC50 (in general, the concentration at which inhibition is half-maximal) on BACE1 [1] was determined as 0.000673 µM; on Cathepsin D (CatD) it was 396 µM; at BACE1 [2], 0.00384 µM.

Consider `COC(=O)[C@]12C[C@H]1[C@@](C)(c1cc(/C=C(\F)c3cnc(OCc4ncco4)cn3)ccc1F)N=C(N)S2` [Example 150, (1S,5S,6S)-methyl 3-amino-5-(2-fluoro-5-((Z)-2-fluoro-2-(5-(oxazol-2-ylmethoxy)pyrazin-2-yl)vinyl)phenyl)-5-methyl-2-thia-4-azabicyclo[4.1.0]hept-3-ene-1-carboxylate], for which the IC50 came to 0.0535 µM at BACE1 [1], 2.42 µM on BACE2 and 0.379 µM at BACE1 [2].

Turning to `Cc1cc(C#N)cnc1/C(F)=C/c1ccc(F)c([C@@]2(C)N=C(N)S[C@@]3(C(=O)N4CCOCC4)C[C@H]32)c1` [Example 160, 6-((Z)-2-(3-((1S,5S,6S)-3-amino-5-methyl-1-(morpholine-4-carbonyl)-2-thia-4-azabicyclo[4.1.0]hept-3-en-5-yl)-4-fluorophenyl)-1-fluorovinyl)-5-methylnicotinonitrile], the half-maximal inhibitory concentration (IC50) was 0.00734 µM on BACE1 [1] and 0.0891 µM on BACE2. The pIC50 (in general, the negative decadic logarithm of the IC50, by convention in mol/L) against BACE1 [2] is 7.83.

`C[C@]1(c2cc(/C=C(\F)c3cnc(C#N)cn3)ccc2F)N=C(N)S[C@@]2(C(=O)N3CC[C@H](F)C3)C[C@H]21` [Example 202, 5-((Z)-2-(3-((1S,5S,6S)-3-amino-1-((S)-3-fluoropyrrolidine-1-carbonyl)-5-methyl-2-thia-4-azabicyclo[4.1.0]hept-3-en-5-yl)-4-fluorophenyl)-1-fluorovinyl)pyrazine-2-carbonitrile]: the half-maximal inhibitory concentration (IC50) on BACE1 [1] was found to be 0.001 µM; at BACE2 it was 0.04 µM; on BACE1 [2], 0.001 µM.

With `C[C@]1(c2cc(/C=C(\F)c3cnc(C#N)cn3)ccc2F)N=C(N)S[C@@]2(C(=O)N3CC[C@@H](F)C3)C[C@H]21` [Example 203, 5-((Z)-2-(3-((1S,5S,6S)-3-amino-1-((R)-3-fluoropyrrolidine-1-carbonyl)-5-methyl-2-thia-4-azabicyclo[4.1.0]hept-3-en-5-yl)-4-fluorophenyl)-1-fluorovinyl)pyrazine-2-carbonitrile], the IC50 at BACE1 [1] was 0.001 µM; at BACE2, 0.045 µM; on BACE1 [2], 0.001 µM.

Regarding `C[C@]1(c2cc(/C=C(\F)c3cnc(C#N)cn3)ccc2F)N=C(N)S[C@@]2(C(=O)N3CCCC3)C[C@H]21` [Example 204, 5-((Z)-2-(3-((1S,5S,6S)-3-amino-5-methyl-1-(pyrrolidine-1-carbonyl)-2-thia-4-azabicyclo[4.1.0]hept-3-en-5-yl)-4-fluorophenyl)-1-fluorovinyl)pyrazine-2-carbonitrile], the IC50 at BACE1 [1] stood at 0.001 µM; at BACE2 it was 0.048 µM. Also, the pIC50 on BACE1 [2] is 8.52.

For the molecule `C#C[C@H](C)Oc1cnc(/C(F)=C/c2ccc(F)c([C@@]3(C)N=C(N)S[C@@]4(C(C)=O)C[C@H]43)c2)cn1` [Example 237, 1-((1S,5S,6S)-3-amino-5-(5-((Z)-2-(5-((S)-but-3-yn-2-yloxy)pyrazin-2-yl)-2-fluorovinyl)-2-fluorophenyl)-5-methyl-2-thia-4-azabicyclo[4.1.0]hept-3-en-1-yl)ethanone], the values for the IC50 at BACE1 [1], at BACE2 and on BACE1 [2] were 0.0032 µM, 0.438 µM and 0.0339 µM, respectively.

For the molecule `C#CCOc1cnc(/C(F)=C/c2ccc(F)c([C@@]3(C)N=C(N)S[C@@]4(C(N)=O)C[C@H]43)c2)cn1` [Example 239, (1S,5S,6S)-3-amino-5-(2-fluoro-5-((Z)-2-fluoro-2-(5-(prop-2-yn-1-yloxy)pyrazin-2-yl)vinyl)phenyl)-5-methyl-2-thia-4-azabicyclo[4.1.0]hept-3-ene-1-carboxamide], the IC50 at BACE1 [1] was determined as 0.0013 µM; at BACE2 it was 0.177 µM. The negative-log IC50 (pIC50) on BACE1 [2] was 8.54.

As for `C[C@]1(c2cc(/C=C(\F)c3ccc(C#N)cn3)cnc2F)N=C(N)S[C@@]2(C(=O)N3CCC(F)(F)C3)C[C@H]21` [Example 259, 6-((Z)-2-(5-((1S,5S,6S)-3-amino-1-(3,3-difluoropyrrolidine-1-carbonyl)-5-methyl-2-thia-4-azabicyclo[4.1.0]hept-3-en-5-yl)-6-fluoropyridin-3-yl)-1-fluorovinyl)nicotinonitrile], the IC50 was found to be 0.0095 µM on BACE1 [1], 0.113 µM at BACE2 and 0.0309 µM on BACE1 [2].

Regarding `C#CCOc1cnc(/C(F)=C/c2cnc(F)c([C@@]3(C)N=C(N)S[C@@]4(C(=O)N5CCOC[C@H]5C)C[C@H]43)c2)cn1` [Example 283, ((1S,5S,6S)-3-amino-5-(2-fluoro-5-((Z)-2-fluoro-2-(5-(prop-2-yn-1-yloxy)pyrazin-2-yl)vinyl)pyridin-3-yl)-5-methyl-2-thia-4-azabicyclo[4.1.0]hept-3-en-1-yl)((R)-3-methylmorpholino)methanone], the figures for the IC50 on BACE1 [1], on BACE2 and at BACE1 [2] were 0.0017 µM, 0.375 µM and 0.0044 µM, respectively.

Turning to `COC[C@]12C[C@H]1[C@@](C)(c1cc(/C=C(\F)c3ccc(Cl)cn3)ccc1F)N=C(N)S2` [Example 286, (1S,5S,6S)-5-(5-((Z)-2-(5-chloropyridin-2-yl)-2-fluorovinyl)-2-fluorophenyl)-1-(methoxymethyl)-5-methyl-2-thia-4-azabicyclo[4.1.0]hept-3-en-3-amine], the IC50 on BACE1 [1] is 0.0712 µM; at BACE2 it was 0.069 µM; at BACE1 [2], 0.346 µM.

For `C#CCOc1cnc(/C(F)=C/c2ccc(F)c([C@@]3(C)N=C(N)S[C@@]4(C(=O)N5CC[C@@H](F)C5)C[C@H]43)c2)cn1` [Example 297, ((1S,5S,6S)-3-amino-5-(2-fluoro-5-((Z)-2-fluoro-2-(5-(prop-2-yn-1-yloxy)pyrazin-2-yl)vinyl)phenyl)-5-methyl-2-thia-4-azabicyclo[4.1.0]hept-3-en-1-yl)((R)-3-fluoropyrrolidin-1-yl)methanone], the values for the IC50 on BACE1 [1], at BACE2 and on BACE1 [2] were 0.0009 µM, 0.041 µM and 0.0004 µM, respectively.

For `C#CCOc1cnc(/C(F)=C/c2ccc(F)c([C@@]3(C)N=C(N)S[C@@]4(C(=O)N5CC[C@H](F)C5)C[C@H]43)c2)cn1` [Example 303, ((1S,5S,6S)-3-amino-5-(2-fluoro-5-((Z)-2-fluoro-2-(5-(prop-2-yn-1-yloxy)pyrazin-2-yl)vinyl)phenyl)-5-methyl-2-thia-4-azabicyclo[4.1.0]hept-3-en-1-yl)((S)-3-fluoropyrrolidin-1-yl)methanone], the 50% inhibitory concentration (IC50) came out at 0.0004 µM at BACE1 [1], 0.093 µM at BACE2 and 0.0005 µM at BACE1 [2].

`C#CCOc1cnc(/C(F)=C/c2ccc(F)c([C@@]3(C)N=C(N)S[C@@]4(C(=O)N5CCOC[C@H]5C)C[C@H]43)c2)cn1` [Example 304, ((1S,5S,6S)-3-amino-5-(2-fluoro-5-((Z)-2-fluoro-2-(5-(prop-2-yn-1-yloxy)pyrazin-2-yl)vinyl)phenyl)-5-methyl-2-thia-4-azabicyclo[4.1.0]hept-3-en-1-yl)((R)-3-methylmorpholino)methanone]: the IC50 turned out to be 0.0006 µM at BACE1 [1], 0.29 µM at BACE2 and 0.0015 µM at BACE1 [2].

Take `COC[C@]12C[C@H]1[C@@](C)(c1cc(/C=C(\F)c3cc4c(cn3)OCCO4)ccc1F)N=C(N)S2` [Example 305, (1S,5S,6S)-5-(5-((Z)-2-(2,3-dihydro-[1,4]dioxino[2,3-c]pyridin-7-yl)-2-fluorovinyl)-2-fluorophenyl)-1-(methoxymethyl)-5-methyl-2-thia-4-azabicyclo[4.1.0]hept-3-en-3-amine]: the IC50 on BACE1 [1] was determined as 1.76 µM; at BACE2, 0.373 µM; at BACE1 [2], 0.793 µM.

For the molecule `C[C@]1(c2cc(/C=C(\F)c3ccc(C#N)cn3)ccc2F)N=C(N)S[C@@]2(C(=O)N3CCO[C@H]4C[C@H]43)C[C@H]21` [Example 311, 6-((Z)-2-(3-((1S,5S,6S)-3-amino-1-((1S,6R)-2-oxa-5-azabicyclo[4.1.0]heptane-5-carbonyl)-5-methyl-2-thia-4-azabicyclo[4.1.0]hept-3-en-5-yl)-4-fluorophenyl)-1-fluorovinyl)nicotinonitrile], the IC50 at BACE1 [1] is 0.0018 µM; at BACE2 it was 0.048 µM; on BACE1 [2], 0.0015 µM.

In the case of `C[C@]1(c2cc(/C=C(\F)c3ccc(C#N)cn3)ccc2F)N=C(N)S[C@@]2(C(=O)N3CCCC(F)(F)C3)C[C@H]21` [Example 324, 6-((Z)-2-(3-((1S,5S,6S)-3-amino-1-(3,3-difluoropiperidine-1-carbonyl)-5-methyl-2-thia-4-azabicyclo[4.1.0]hept-3-en-5-yl)-4-fluorophenyl)-1-fluorovinyl)nicotinonitrile], the IC50 came out at 0.0011 µM at BACE1 [1], 0.019 µM at BACE2 and 0.0031 µM on BACE1 [2].

With `C[C@]1(c2cc(/C=C(\F)c3ccc(C#N)cn3)ccc2F)N=C(N)S[C@@]2(C(=O)N3CC[C@@H](O)C3)C[C@H]21` [Example 333, 6-((Z)-2-(3-((1S,5S,6S)-3-amino-1-((R)-3-hydroxypyrrolidine-1-carbonyl)-5-methyl-2-thia-4-azabicyclo[4.1.0]hept-3-en-5-yl)-4-fluorophenyl)-1-fluorovinyl)nicotinonitrile], the IC50 came to 0.0008 µM on BACE1 [1], 0.053 µM on BACE2 and 0.0007 µM on BACE1 [2].

In the case of `C#Cc1cnc(/C(F)=C/c2ccc(F)c([C@@]3(C)N=C(N)S[C@@]4(C(=O)N5CCOCC5)C[C@H]43)c2)cn1` [Example 350, ((1S,5S,6S)-3-amino-5-(5-((Z)-2-(5-ethynylpyrazin-2-yl)-2-fluorovinyl)-2-fluorophenyl)-5-methyl-2-thia-4-azabicyclo[4.1.0]hept-3-en-1-yl)(morpholino)methanone], the IC50 at BACE1 [1] turned out to be 0.004 µM; at BACE2, 0.046 µM; at BACE1 [2] it was 0.04 µM.
